Measured values published in US20240389593A1, “HETEROCYCLIC COMPOUND AND USE THEREOF” (KUMIAI CHEMICAL INDUSTRY CO., LTD., priority 2021, published 2024).

Assays:
Format in all cases: in vivo
[1] = test system: Nilaparvata lugens; assay: Test on insecticidal activity in Nilaparvata lugens (rice sprout dip); conditions: 144 h, 500 ppm active ingredient (wettable powder diluted with water), rice sprouts dipped, second-instar larvae, 25° C., 6 days after treatment
Protocol: A wettable powder prepared according to formulation example 2 was diluted with water to a concentration of 500 ppm as the active ingredient. Some rice sprouts were dipped in the drug solution and placed in a plastic cup. Ten second-instar larvae of Nilaparvata lugens were put on the treated leaves, and the cup was covered with a lid. Then, it was placed in a constant room temperature of 25° C. The number of dead insects was investigated at 6 days after the treatment. Mortality rate was calculated using the formula 1. The number of replication was one in each test.

[2] = test system: Aphis gossypii; assay: Test on pest control effect in Aphis gossypii (cucumber nursery plant dip); conditions: 72 h, 500 ppm active ingredient (wettable powder diluted with water), cucumber nursery plants inoculated with larvae dipped, 25° C., 3 days after treatment
Protocol: [Test example 4] Test on pest control effect in Aphis gossypii A wettable powder prepared according to formulation example 2 was diluted with water to a concentration of 500 ppm as the active ingredient. Some nursery plant of cucumber previously inoculated with larvae of Aphis gossypii were dipped in the drug solution and air-dried. The treated nursery plants of cucumber were placed in a room at constant temperature of 25° C. The number of surviving insects was counted at 3 days after the treatment. Mortality rate was calculated using the formula 1. The number of replication was one in each test.

[3] = test system: Helicoverpa armigera; assay: Test on insecticidal activity in Helicoverpa armigera (cabbage leaf dip); conditions: foliar, 144 h, 500 ppm active ingredient (wettable powder diluted with water), cabbage leaves dipped, hatching larvae, 25° C., 6 days after treatment
Protocol: (§1) A wettable powder prepared according to formulation example 2 was diluted with water to a concentration of 500 ppm as the active ingredient. Some cabbage leaves were dipped in the drug solution, air-dried, and then placed in a plastic cup. Five hatching larvae of Helicoverpa armigera were put on the treated leaves, and the cup was covered with a lid. Then, it was placed in a room at constant temperature of 25° C. The number of dead insects was investigated at 6 days after the treatment. Mortality rate was calculated using the formula 1. The number of replication was two in each test.

[4] = test system: Plutella xylostella; assay: Test on insecticidal activity in Plutella xylostella (cabbage leaf dip); conditions: foliar, 144 h, 500 ppm active ingredient (wettable powder diluted with water), cabbage leaves dipped, second-instar larvae, 25° C., 6 days after treatment
Protocol: as §1, with “Ten second-instar” for “Five hatching”, “Plutella xylostella” for “Helicoverpa armigera”, “after” for “after the”, “one” for “two”

Measured: mortality at 500 ppm

CCS(=O)(=O)c1c(-n2cc(OCC(F)(F)C(F)(F)C(F)(F)F)cn2)nc2ccc(Br)cn12 [A-0039, 6-bromo-3-(ethylsulfonyl)-2-[4-(2,2,3,3,4,4,4-heptafluorobutoxy)-1H-pyrazol-1-yl] imidazo [1,2-a] pyridine]
≥ 90%: all assays above

CCS(=O)(=O)c1c(-n2cc(OCC(F)(F)C(F)(F)C(F)(F)F)cn2)nc2ccc(C(F)(F)F)cn12 [A-0046, 3-(ethylsulfonyl)-2-[4-(2,2,3,3,4,4,4-heptafluorobutoxy)-1H-pyrazol-1-yl]-6-(trifluoromethyl)imidazo[1,2-a]pyridine]
≥ 90%: all assays above

CCS(=O)(=O)c1c(-n2cc(OCC(F)(F)C(F)(F)C(F)(F)F)cn2)nc2ccc(C3CC3)cn12 [A-0049, 6-cyclopropyl-3-(ethylsulfonyl)-2-[4-(2,2,3,3,4,4,4-heptafluorobutoxy)-1H-pyrazol-1-yl] imidazo [1,2-a] pyridine]
≥ 90%: all assays above
